This is an account of results in ChEMBL document CHEMBL1134220, “The synthesis of beta-peptides containing guanidino groups” (Bioorg Med Chem Lett, 2001).

In general, pKa refers to the negative logarithm of the acid dissociation constant. A higher pKa goes with a group that holds its proton tightly.

The nature of the series: pKa was determined. In kind it is physicochemical.

Molecules are shown by their SMILES.

As to `N=C(N)N` [GUANIDINE], the pKa came out at 13.5.
